From ChEMBL document CHEMBL1201862, “PubChem BioAssay data set” (2004)
Counter-ions that a name gives are not always drawn. Activity calls are given as the source filed them.

Legend:
[1] = A cytotoxicity screen of small molecule inhibitors of the PhoP region in Salmonella typhi identified in the primary screen. [Related pubchem assays: 1850, 1864, 1985 ]; type: functional
[2] = biological target: T1, Short transient receptor potential channel 4 (Mus musculus, UniProt Q9QUQ5); test: mouse TRPC4 channel inhibitors, dose response, cell-based, HEK293 TRPC4/mu-opioid, Fluo-4 calcium (AID 434942); type: functional;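 note: potency of inhibitors blocking the TRPC4 calcium response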
T1 sequence (Q9QUQ5 whole entry): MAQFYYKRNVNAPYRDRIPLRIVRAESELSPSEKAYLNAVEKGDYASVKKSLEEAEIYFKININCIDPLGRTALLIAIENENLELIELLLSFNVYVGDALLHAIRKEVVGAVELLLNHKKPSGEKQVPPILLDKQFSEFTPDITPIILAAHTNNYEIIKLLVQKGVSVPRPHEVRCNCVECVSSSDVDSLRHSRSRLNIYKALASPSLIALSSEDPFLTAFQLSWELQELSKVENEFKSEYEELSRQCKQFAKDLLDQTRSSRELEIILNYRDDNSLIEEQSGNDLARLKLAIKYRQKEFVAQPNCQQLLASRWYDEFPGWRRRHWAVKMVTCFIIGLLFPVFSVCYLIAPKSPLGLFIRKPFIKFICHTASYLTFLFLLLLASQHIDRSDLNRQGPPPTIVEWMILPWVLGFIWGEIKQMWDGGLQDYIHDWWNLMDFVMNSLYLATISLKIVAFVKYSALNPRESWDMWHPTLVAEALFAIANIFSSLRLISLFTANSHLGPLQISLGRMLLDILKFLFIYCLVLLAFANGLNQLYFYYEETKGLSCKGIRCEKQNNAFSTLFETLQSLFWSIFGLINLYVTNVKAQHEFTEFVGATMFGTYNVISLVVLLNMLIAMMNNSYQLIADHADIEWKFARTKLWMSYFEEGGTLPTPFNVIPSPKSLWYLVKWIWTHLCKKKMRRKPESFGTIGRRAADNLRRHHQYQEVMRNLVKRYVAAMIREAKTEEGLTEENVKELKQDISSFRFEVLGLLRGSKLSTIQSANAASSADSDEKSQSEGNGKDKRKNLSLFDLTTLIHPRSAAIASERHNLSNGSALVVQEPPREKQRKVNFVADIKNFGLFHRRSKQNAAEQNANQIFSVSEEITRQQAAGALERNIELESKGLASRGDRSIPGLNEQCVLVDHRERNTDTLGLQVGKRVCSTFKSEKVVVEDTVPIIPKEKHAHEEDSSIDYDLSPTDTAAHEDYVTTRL

INS1 = test: beta cell apoptosis inhibitors, cytokine rescue, dose response, luminescence, retest (AID 449756); type: functional, cell-based; conditions: Rattus norvegicus;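 note: cell death triggered by IL-1 beta plus TNF-alpha plus IFN-gamma mixture; protective hits raise ATP signal compared with cytokine alone wells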
[3] = inhibitors of firefly luciferase expression or activity, dose response, H4 neuroglioma cells, luminescence (AID 1990); type: functional, cell-based
[4] = Luminescence Cell-Based Dose Response HTS to Identify Inhibitors of 5'UTR Stem-Loop Driven Prion Protein mRNA Translation in H4 Neuroglioblastoma Cells. [Related pubchem assays: 1827 (Project Summary), 1813 (Primary HTS)]; type: functional
[5] = inhibitors of SNCA 5'UTR-driven reporter translation, confirmation, H4 neuroglioma cells, luminescence (AID 1988); type: functional, cell-based
[6] = cytotoxicity in HPDE-C7 cells, cell-based, fluorescence, HTS (AID 430); type: functional; conditions: Homo sapiens
[7] = cytotoxicity in KRAS-transformed pancreatic duct cells, primary screen, cell-based, fluorescence, HTS (AID 431); type: functional; conditions: Homo sapiens;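 note: cell line used: HPDE-C7K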
[8] = growth suppression of PTEN-null colon cells, dose response, cell-based, HCT116 PTEN knockout (AID 1047); type: functional;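 note: HCT116 colon tumor cells with PTEN knocked out; cells exposed to compound for 60 hours before readout; potency for loss of cell viability measured by luminescence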
[9] = growth suppression of beta-catenin-knockout colon cells, dose response, cell-based, HCT116, human colon tumor (AID 1045); type: functional;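 note: HCT116 colon tumor cells with beta catenin knocked out; cells exposed to compound for 60 hours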
[10] = biological target: T2, DNA repair protein RAD52 homolog (Homo sapiens, UniProt P43351); type: functional, biochemical
T2 sequence (P43351 whole entry): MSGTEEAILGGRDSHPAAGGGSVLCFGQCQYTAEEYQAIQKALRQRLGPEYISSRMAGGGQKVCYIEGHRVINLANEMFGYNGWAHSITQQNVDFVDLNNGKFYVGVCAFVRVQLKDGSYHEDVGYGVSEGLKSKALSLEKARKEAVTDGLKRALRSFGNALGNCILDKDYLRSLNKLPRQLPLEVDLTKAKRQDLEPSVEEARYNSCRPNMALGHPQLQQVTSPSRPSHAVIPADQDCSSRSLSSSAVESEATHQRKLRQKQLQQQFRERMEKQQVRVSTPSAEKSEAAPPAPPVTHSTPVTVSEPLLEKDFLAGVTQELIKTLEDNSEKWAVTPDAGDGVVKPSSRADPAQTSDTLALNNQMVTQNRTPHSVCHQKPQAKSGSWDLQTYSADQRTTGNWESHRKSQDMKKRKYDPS

Leucine aminopeptidase = biological target: T3, Leucine aminopeptidase (Plasmodium falciparum 3D7, UniProt Q8IL11); test: P. falciparum M17LAP inhibitors, primary screen, biochemical, fluorogenic H-Leu-NHMec substrate, 1536-well (AID 1619); type: functional
T3 sequence (Q8IL11 whole entry): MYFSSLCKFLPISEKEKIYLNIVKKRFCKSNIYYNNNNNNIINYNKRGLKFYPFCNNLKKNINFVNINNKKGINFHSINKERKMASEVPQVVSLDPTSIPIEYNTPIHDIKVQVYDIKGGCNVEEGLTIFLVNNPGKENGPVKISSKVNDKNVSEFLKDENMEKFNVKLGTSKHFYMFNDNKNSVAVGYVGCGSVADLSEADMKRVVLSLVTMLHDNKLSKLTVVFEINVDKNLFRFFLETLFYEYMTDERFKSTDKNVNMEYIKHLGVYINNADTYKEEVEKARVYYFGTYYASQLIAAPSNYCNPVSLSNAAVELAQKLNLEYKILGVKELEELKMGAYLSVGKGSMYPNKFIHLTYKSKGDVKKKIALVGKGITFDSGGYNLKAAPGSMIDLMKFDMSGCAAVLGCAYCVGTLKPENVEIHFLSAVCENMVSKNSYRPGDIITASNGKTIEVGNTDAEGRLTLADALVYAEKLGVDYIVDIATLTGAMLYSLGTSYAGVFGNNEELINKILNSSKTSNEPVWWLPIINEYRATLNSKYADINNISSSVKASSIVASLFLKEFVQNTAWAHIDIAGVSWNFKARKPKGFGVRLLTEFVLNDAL

Cytochrome P450 2C19 = Cytochrome P450 2C19 (Homo sapiens, UniProt P33261); test: Cytochrome panel assay with activity outcomes. Panel member name: p450-cyp2c19 Compounds with AC50 equal or less than 10 uM are considered active; type: functional; conditions: read-out: AC50
Cytochrome P450 2D6 = Cytochrome P450 2D6 (Homo sapiens, UniProt P10635);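 note: CYP2D6 member of a cytochrome P450 panel assay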
[11] = biological target: DNA dC->dU-editing enzyme APOBEC-3A (Homo sapiens, UniProt P31941); test: APOBEC3A DNA deaminase inhibitors, dose response, biochemical (AID 504722); type: functional
[12] = biological target: DNA dC->dU-editing enzyme APOBEC-3G (Homo sapiens, UniProt Q9HC16); test: Dose Response confirmation of small molecule APOBEC3G DNA Deaminase Inhibitors via a fluorescence-based single-stranded DNA deaminase assay. [Related pubchem assays (depositor defined):AID493012, AID493028]; type: functional
Vero [13] = test: cells; type: functional, cell-based; conditions: Chlorocebus sabaeus
Vero [14] = test: cells; type: functional; conditions: Chlorocebus sabaeus
[15] = test system: Streptococcus sp. 'group A'; test: growth inhibition of control SK(-) GAS strain, dose response, counter-screen for streptokinase expression inhibitor project, luminescence, kanamycin, BacTiterGlo, confirmation (AID 1900); type: functional, organism-based
Streptokinase A = biological target: T4, Streptokinase A (Streptococcus pyogenes serotype M1, UniProt P10520); test: S. pyogenes streptokinase expression inhibitors, potency, dose response, plasminogen activation absorbance, OD405 (AID 1914); type: functional, Streptococcus pyogenes M1 GAS;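 note: secreted streptokinase activity via plasminogen activation per viability signal from cell pellet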
T4 sequence (P10520 whole entry): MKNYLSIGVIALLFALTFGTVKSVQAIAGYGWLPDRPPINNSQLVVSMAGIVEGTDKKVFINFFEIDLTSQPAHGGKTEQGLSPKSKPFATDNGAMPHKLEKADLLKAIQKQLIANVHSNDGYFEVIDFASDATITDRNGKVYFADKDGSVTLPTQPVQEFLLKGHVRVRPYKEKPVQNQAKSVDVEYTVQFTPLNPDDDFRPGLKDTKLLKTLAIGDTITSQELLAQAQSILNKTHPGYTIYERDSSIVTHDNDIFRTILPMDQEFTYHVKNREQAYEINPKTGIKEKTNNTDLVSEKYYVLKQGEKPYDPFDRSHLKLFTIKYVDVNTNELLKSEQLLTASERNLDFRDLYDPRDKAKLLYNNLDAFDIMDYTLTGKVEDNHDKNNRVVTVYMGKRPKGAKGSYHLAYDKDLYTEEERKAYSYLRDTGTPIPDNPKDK

Streptococcus = test: Group A Streptococcus viability loss, dose response, counter-screen for streptokinase expression inhibitor project, luminescence, BacTiterGlo (AID 1915); type: functional, organism-based;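 note: potency for reduction of bacterial viability or growth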
[16] = HEp-2 cell cytotoxicity, dose response, cytotoxicity control for RSV inhibitor project, HTS (AID 2410); type: functional; conditions: human respiratory syncytial virus
[17] = Luminescence Cell-Based Dose Retest to Confirm Inhibitors of Cancer Stem Cells. [Related pubchem assays (depositor defined):AID2717, AID2721]; type: functional; conditions: Homo sapiens
[18] = P. falciparum Dd2 growth inhibitors, dose response, SYBR Green, cherry-picked samples (AID 1159567); type: functional, cell-based
[19] = biological target: Glyceraldehyde-3-phosphate dehydrogenase (Homo sapiens, UniProt P04406)
Sequence of Glyceraldehyde-3-phosphate dehydrogenase (P04406 whole entry): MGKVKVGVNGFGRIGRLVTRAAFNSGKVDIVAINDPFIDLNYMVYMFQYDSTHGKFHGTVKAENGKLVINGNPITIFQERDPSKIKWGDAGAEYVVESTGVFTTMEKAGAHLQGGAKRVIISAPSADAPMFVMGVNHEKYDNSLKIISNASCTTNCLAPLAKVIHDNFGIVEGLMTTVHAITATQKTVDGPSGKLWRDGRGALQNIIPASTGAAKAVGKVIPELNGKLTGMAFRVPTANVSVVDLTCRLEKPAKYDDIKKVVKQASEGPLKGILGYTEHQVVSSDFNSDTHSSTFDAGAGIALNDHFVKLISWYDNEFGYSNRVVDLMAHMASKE

Sequence of DNA dC->dU-editing enzyme APOBEC-3G (Q9HC16 whole entry): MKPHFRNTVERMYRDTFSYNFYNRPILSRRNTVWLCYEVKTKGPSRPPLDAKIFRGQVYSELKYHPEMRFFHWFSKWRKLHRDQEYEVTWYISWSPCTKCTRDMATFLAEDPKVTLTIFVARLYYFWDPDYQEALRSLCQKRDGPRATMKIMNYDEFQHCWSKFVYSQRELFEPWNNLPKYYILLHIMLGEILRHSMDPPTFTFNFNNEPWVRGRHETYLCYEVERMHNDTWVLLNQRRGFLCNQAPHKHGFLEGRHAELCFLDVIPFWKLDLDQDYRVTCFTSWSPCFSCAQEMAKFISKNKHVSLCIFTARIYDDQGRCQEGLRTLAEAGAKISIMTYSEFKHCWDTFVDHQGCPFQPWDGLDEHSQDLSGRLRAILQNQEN
Sequence of DNA dC->dU-editing enzyme APOBEC-3A (P31941 whole entry): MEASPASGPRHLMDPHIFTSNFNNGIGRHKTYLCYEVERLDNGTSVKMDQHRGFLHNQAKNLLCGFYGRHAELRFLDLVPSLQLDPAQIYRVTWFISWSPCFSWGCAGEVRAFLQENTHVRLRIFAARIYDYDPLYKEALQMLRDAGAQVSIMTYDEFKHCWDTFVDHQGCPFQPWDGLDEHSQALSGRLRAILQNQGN
Sequence of Cytochrome P450 2C19 (P33261 whole entry): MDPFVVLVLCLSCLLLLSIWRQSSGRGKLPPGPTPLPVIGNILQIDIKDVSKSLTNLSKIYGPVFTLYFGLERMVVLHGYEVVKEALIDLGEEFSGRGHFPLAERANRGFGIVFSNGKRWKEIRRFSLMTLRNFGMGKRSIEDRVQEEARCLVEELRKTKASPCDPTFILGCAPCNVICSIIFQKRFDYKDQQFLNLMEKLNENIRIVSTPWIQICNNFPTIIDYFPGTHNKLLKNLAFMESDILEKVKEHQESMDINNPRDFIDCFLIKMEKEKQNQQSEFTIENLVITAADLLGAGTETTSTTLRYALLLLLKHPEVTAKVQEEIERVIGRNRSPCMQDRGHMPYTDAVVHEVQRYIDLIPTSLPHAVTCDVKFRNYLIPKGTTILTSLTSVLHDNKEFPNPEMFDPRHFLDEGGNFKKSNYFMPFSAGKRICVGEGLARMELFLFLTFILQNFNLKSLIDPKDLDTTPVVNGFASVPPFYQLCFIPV
Sequence of Cytochrome P450 2D6 (P10635 whole entry): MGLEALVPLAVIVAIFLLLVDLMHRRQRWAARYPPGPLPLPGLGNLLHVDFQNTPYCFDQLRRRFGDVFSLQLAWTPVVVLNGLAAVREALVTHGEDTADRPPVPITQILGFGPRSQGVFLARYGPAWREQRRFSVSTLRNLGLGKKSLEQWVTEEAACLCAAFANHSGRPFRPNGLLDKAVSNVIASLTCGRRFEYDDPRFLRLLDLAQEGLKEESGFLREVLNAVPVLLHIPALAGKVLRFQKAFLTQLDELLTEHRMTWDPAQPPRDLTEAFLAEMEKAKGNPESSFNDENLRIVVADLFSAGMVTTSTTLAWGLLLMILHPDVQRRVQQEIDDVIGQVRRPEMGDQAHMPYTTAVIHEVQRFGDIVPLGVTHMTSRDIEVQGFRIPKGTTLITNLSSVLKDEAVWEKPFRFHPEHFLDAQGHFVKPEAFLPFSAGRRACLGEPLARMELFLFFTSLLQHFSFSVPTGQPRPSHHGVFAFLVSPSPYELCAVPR

COc1ccc(N(CC(=O)N2c3ccccc3CC2C)S(=O)(=O)c2c(C)noc2C)cc1 (stereo not given)
EC50 [1]: > 50 µM (active)

Brc1ccccc1CN1CCN(Cc2c[nH]c3ccccc23)CC1
EC50 [2]: 0.0747 µM (active)
AC50 (INS1): 2.16 µM (active)

CCOC(=O)C1=NN(c2ccccc2C)C2=NC(C)=C(C(=O)OC)C(c3cccc(OC)c3)N12 (stereo not given)
EC50 [2]: 2.99 µM (active)

CSc1ccc2c(c1)N(CCC1CCCCN1C)c1ccccc1S2 (stereo not given) [THIORIDAZINE HYDROCHLORIDE]
EC50 [3]: > 120 µM (not active)
EC50 [4]: > 60 µM (not active)
EC50 [5]: > 120 µM (not active)
EC50 [6]: 8.18 µM (active)
EC50 [7]: 3.43 µM (active)
EC50 [8]: 11.1 µM (active)
EC50 [9]: 9.28 µM (active)
AC50 [10]: 13.7 µM (active)

Cc1cc(C)c(CSc2ncnc3[nH]cnc23)c(C)c1
EC50 [1]: > 50 µM (active)

Oc1cc(O)c2sc3nc(-c4cccnc4)cc(C(F)(F)F)c3c2n1
IC50 (Leucine aminopeptidase): 58.2 µM (active)

CCCCC[C@H](O)/C=C/[C@H]1C=CC(=O)[C@@H]1C/C=C\CCCC(=O)O [PROSTAGLANDIN A2]
EC50 [6]: > 20 µM (not active)
EC50 [7]: > 20 µM (not active)

CCc1nnc(NS(=O)(=O)c2ccc(/N=C/c3c(C)nn(-c4ccc(C)cc4)c3O)cc2)s1
IC50 (Leucine aminopeptidase): 8.11 µM (active)
AC50 (Cytochrome P450 2C19): 5.01 µM (inconclusive)
AC50 (Cytochrome P450 2D6): 5.62 µM (inconclusive)

Sc1nnc(-c2cccnc2)n1/N=C/c1ccccc1
IC50 [11]: > 100 µM (inactive)
IC50 [12]: 2.02 µM (active)

CCn1c(-c2cccc(Cl)c2)n[nH]c1=S
IC50 [11]: > 100 µM (inactive)
IC50 [12]: 6.09 µM (active)

CC(=O)/C(C#N)=C1\NC(=O)C(Cc2ccccc2Cl)S1 (stereo not given)
IC50 (Leucine aminopeptidase): 26.6 µM (active)
IC50 (Vero [13]): 2.83 µM (active)
CC50 (Vero [14]): 18.9 µM (active)

O=C(Cc1cccs1)NNC(=S)NC(=O)c1ccccc1
IC50 (Leucine aminopeptidase): 30 µM (active)
EC50 [15]: 4.36 µM (active)
EC50 (Streptokinase A): > 150 µM (not active)
EC50 (Streptococcus): 16.9 µM (active)

CSc1ncccc1C(=O)Nc1nc(C(C)(C)C)cs1
CC50 [16]: 49.6 µM (active)
IC50 (cells): 4.75 µM (active)

N#CC1=C(SCC(=O)c2ccc(Cl)cc2)N=C2CCCC(O)=C2C1c1ccco1 (stereo not given)
EC50 [6]: 7.64 µM (active)
EC50 [7]: 7.7 µM (active)
AC50 [17]: 2.64 µM (active)

Cc1c(NC(=O)CN2C(=O)NC3(CCCCC3C)C2=O)cccc1[N+](=O)[O-] (stereo not given)
IC50 (cells): 11.6 µM (active)

Cc1ccc(-c2n[nH]c(=S)n2C)cc1Cl
IC50 [11]: > 100 µM (inactive)
IC50 [12]: 4.34 µM (active)

N#CC1=C2SCN(c3ccccc3)CN2C(=O)CC1c1cccs1 (stereo not given)
IC50 [11]: > 100 µM (inactive)
IC50 [12]: 7.25 µM (active)

CCOc1ccc(N(Cc2cc3cc(OC)ccc3nc2O)S(C)(=O)=O)cc1
EC50 [6]: > 20 µM (not active)
EC50 [7]: > 20 µM (not active)

CCS(=O)(=O)N1CCCCN2[C@H](CO)[C@@H](c3ccc(-c4cccc(C#N)c4)cc3)[C@@H]2C1
AC50 [18]: 9.04 µM (active)

CC(=O)/C(C#N)=C1\NC(=O)C(Cc2ccccc2C)S1 (stereo not given)
CC50 [16]: 5.95 µM (active)
IC50 (Vero [13]): 5.5 µM (active)
CC50 (Vero [14]): > 25 µM (active)
IC50 (cells): 2.54 µM (active)

COc1ccc(C(=O)N/C(=C/c2cccs2)c2nc3ccccc3[nH]2)cc1OC
IC50 (cells): 22.6 µM (active)

COc1cccc(NC(=O)N2CCCC(C(=O)Nc3ccccc3OC)C2)c1 (stereo not given)
EC50 [1]: > 50 µM (active)

Cn1c(C(=O)NCc2ccccc2)cc2oc3ccccc3c21
CC50 [16]: 28.9 µM (active)
IC50 (Vero [13]): 1.87 µM (active)
CC50 (Vero [14]): > 25 µM (active)
IC50 (cells): 7.04 µM (active)

O=C(C1CCOCC1)N1[C@H](CO)[C@@H](c2ccccc2)C12CN(Cc1cccc(Cl)c1)C2
AC50 [18]: 5.41 µM (active)

O=C(O)c1cc(N2C(=O)C3C4c5ccccc5C(c5ccccc54)C3C2=O)ccc1O (stereo not given)
IC50 [19]: > 100 µM (not active)
